Reference: patent publication US20140357512A1, “HISTONE DEACETYLASE (HDAC) BIOMARKERS IN MULTIPLE MYELOMA” (priority 2013, published 2014)

System: human myeloma cell line MM.1S
Assay: SILAC acetylated-lysine peptide profiling, HDAC inhibitor vs DMSO (light/heavy ratio)
Format: cell-based
Description: An embodiment of the invention comprises utilizing the SILAC method in order to quantitate changes in protein expression between two or more populations of cells. The SILAC method is a technique based on mass spectrometry that detects differences in protein abundance among samples using non-radioactive isotopic labeling. The SILAC method is known in the art, and described in detail in Ong et al., “Stable Isotope Labeling by Amino Acids in Cell Culture, SILAC, as a Simple and Accurate Approach to Expression Proteomics”, Molecular & Cellular Proteomics, vol. 1, pp. 376-386 (2002), which is incorporated herein by reference in its entirety.
Briefly, the SILAC method involves growing two populations of cells in cell culture. The first population of cells is grown in growth media containing normal amino acids (“normal media”). The second population of cells is grown in media lacking a standard essential amino acid (such as lysine), but is then supplemented with a non-radioactive, isotopically labeled form of that essential amino acid (such as lysine labeled with ^13C atoms, rather than normal ^12C atoms), which is called “heavy media”. When the two populations of cells are each growing in the medium, they incorporate the amino acids into all of their proteins. The growth of cells maintained in the heavy media is no different from that in normal media. All peptides containing the heavy amino acids are heavier than their normal counterparts. The cells from each of the two populations of cells are lysed. The lysates from each of the two cell populations are then combined. The combined cell lysates are then analyzed by mass spectrometry. Pairs of chemically identical peptides of different stable isotope composition can be differentiated in a mass spectrometer due to their difference in mass. The ratio of peak intensities in the mass spectrum for such peptide pairs reflects the abundance ratio for the two proteins.
This example describes SILAC studies that were performed to compare the effects of three different HDAC inhibitors (Compound A, Compound B, and tubastatin A) to a control on a human multiple myeloma cell line. The HDAC inhibitors were also compared amongst themselves to determine differences in their effects.
A human myeloma cell line MM.1S was grown using either ^12C (light) or ^13C (heavy) lysine containing culture medium. The “heavy” cells were treated with DMSO as the control, and the “light” cells were treated with a single HDAC inhibitor at 37° C. for 6 hours. The heavy and light cells were lysed, and the lysates were mixed in 1:1 ratio and digested with the protease trypsin. The acetylated lysine containing peptides (due to the action of the HDAC inhibitor) in the digested peptide pool were captured by a non-specific anti-acetylated lysine antibody cocktail (the antibodies identify both light and heavy acetylated peptides), and subjected to mass spectrometry analysis in order to identify thousands of individual peptides.
Thousands of peptides were identified in pairs (^12C and ^13C) due to their known mass differences. The amino acid sequence and quantitative ratio (Light/Heavy) of a given peptide in two differentially treated cell lysates were then determined and annotated with their possible protein (gene) sources.
As stated above, three HDAC inhibitors (Compound A, Compound B, and Tubastatin A) were used. Thus, the SILAC method was performed three times, with a different HDAC inhibitor compared to a control each time. Accordingly, there are three pairs of quantitative data in the table below, i.e., Compound A:DMSO, Compound B:DMSO, and Tubastatin A:DMSO. A cut-off of 1.30 fold of change (increase or decrease) was then used to determine “changed” or “+” in the table, and any peptides with a fold of change less than 1.3 fold were determined to be “unchanged” or “0” in the table. Those peptides that were not identified were marked as “NA” in the table. […]

Q: `O=C(CCCCCCNC(=O)c1cnc(N(c2ccccc2)c2ccccc2)nc1)NO` [Compound A, 2-(diphenylamino)-N-(7-(hydroxyamino)-7-oxoheptyl)pyrimidine-5-carboxamide] was tested. Which “L/H ratio of acetylated peptide […](ac)K (SEQ ID NO: 105)” value (SNORD21, RPL5 [220], log 2 scale, drug vs DMSO) did it give?
A: 0.00

Q: What about the “L/H ratio of acetylated peptide […](ac)R (SEQ ID NO: 106)” value (SNORD43, RPL3 [115], log 2 scale, drug vs DMSO) of the same compound?
A: 0.00

Q: And the “L/H ratio of acetylated peptide […](ac)YGAIR (SEQ ID NO: 107)” value (SRSF1 [38], log 2 scale, drug vs DMSO)?
A: 0.00

Q: And the “L/H ratio of acetylated peptide (ac)AEPSAPESK(ac)HK (SEQ ID NO: 108)” value (STT3B [10], log 2 scale, drug vs DMSO)?
A: 0.00

Q: And the “L/H ratio of acetylated peptide” value (SYAEELAK(ac)HGMK (SEQ ID NO: 481), Estradiol 17-beta-dehydrogenase 12 [72], HSD17B12)?
A: 0.39 log 2

Q: And the “light to heavy ratio (L/H ratio), log 2 scale, acetylated peptide […](ac)R (SEQ ID NO: 781)” value (Selenoprotein H [20], gene C11orf31, drug:DMSO)?
A: 1.00

Q: And the “light to heavy ratio (L/H ratio) of acetylated peptide LQDFK(ac)SFLLK (SEQ ID NO: 582)” value (Serine hydroxymethyltransferase mitochondrial [469], gene SHMT2, inhibitor:DMSO)?
A: 0.43 log 2

Q: And the “light to heavy ratio (L/H ratio) of acetylated peptide SFLLK(ac)DSETSQR (SEQ ID NO: 567)” value (Serine hydroxymethyltransferase mitochondrial [474], gene SHMT2, inhibitor:DMSO)?
A: 0.41 log 2

Q: What about the “light to heavy ratio (L/H ratio) of acetylated peptide VFEK(ac)YGR (SEQ ID NO: 568)” value (Serine/arginine-rich splicing factor 2 [36], gene SRSF2, inhibitor:DMSO) of the same compound?
A: 0.41 log 2

Q: What about the “light to heavy ratio (L/H ratio) of acetylated peptide SGLLDK(ac)WK (SEQ ID NO: 602)” value (Signal peptidase complex subunit 2 [38], gene LOC653566, SPCS2, inhibitor:DMSO) of the same compound?
A: 0.46 log 2

Q: And the “light to heavy ratio (L/H ratio) of acetylated peptide (ac)[…](ac)DK (SEQ ID NO: 283)” value (Splicing factor U2AF 35 kDa subunit [13], U2AF1, drug:DMSO)?
A: 0.60 log 2

Q: And the “light to heavy ratio (L/H ratio) of acetylated peptide YDDPEVQK(ac)DIK (SEQ ID NO: 578)” value (Stress-70 protein mitochondrial [135], gene HSPA9, inhibitor:DMSO)?
A: 0.43 log 2

Q: And the “light to heavy ratio (L/H ratio) of acetylated peptide […](ac)SLAEHR (SEQ ID NO: 534)” value (Stress-induced-phosphoprotein 1 [325], gene STIP1, inhibitor:DMSO)?
A: −0.40 log 2

Q: What about the “light to heavy ratio (L/H ratio) of acetylated peptide, log 2 scale” value (TLQYK(ac)[…] (SEQ ID NO: 252), 40S ribosomal protein S16 [50], RPS16) of the same compound?
A: −0.39

Q: What about the “L/H ratio of acetylated peptide […](ac)YVPR (SEQ ID NO: 109)” value (TUBB2C [58], log 2 scale, drug vs DMSO) of the same compound?
A: 0.00

Q: And the “L/H ratio of acetylated peptide ILAEGGGAK(ac)FK (SEQ ID NO: 110)” value (TUFM [91], log 2 scale, drug vs DMSO)?
A: 0.00

Q: And the “L/H ratio of acetylated peptide QIESK(ac)[…] (SEQ ID NO: 111)” value (TXN [8], log 2 scale, drug vs DMSO)?
A: 0.00

Q: What about the “L/H ratio of acetylated peptide VYVAK(ac)[…] (SEQ ID NO: 113)” value (TXNDC5, MUTED, MUTED-TXNDC5 [118], log 2 scale, drug vs DMSO) of the same compound?
A: 0.00

Q: What about the “L/H ratio of acetylated peptide […](ac)YQGPR (SEQ ID NO: 112)” value (TXNDC5, MUTED, MUTED-TXNDC5 [150], log 2 scale, drug vs DMSO) of the same compound?
A: 0.00

Q: And the “light to heavy ratio (L/H ratio), log 2 scale, acetylated peptide LLGITK(ac)ECVMR (SEQ ID NO: 815)” value (Talin-1 [334], gene TLN1, drug:DMSO)?
A: 1.00

Q: And the “light to heavy ratio (L/H ratio) of acetylated peptide NICSK(ac)YSVR (SEQ ID NO: 256)” value (Thioredoxin domain-containing protein 5 [390], TXNDC5, MUTED, MUTED-TXNDC5, drug:DMSO)?
A: 0.39 log 2

Q: What about the “light to heavy ratio (L/H ratio), log 2 scale, acetylated peptide […](ac)YGK (SEQ ID NO: 817)” value (Transitional endoplasmic reticulum ATPase [109], gene VCP, drug:DMSO) of the same compound?
A: 1.00

Q: What about the “light to heavy ratio (L/H ratio) of acetylated peptide AVDCLLDSK(ac)WAK (SEQ ID NO: 518)” value (Translocation protein SEC62 [60], gene SEC62, inhibitor:DMSO) of the same compound?
A: −0.51 log 2

Q: And the “light to heavy ratio (L/H ratio) of acetylated peptide NVK(ac)FVLK (SEQ ID NO: 609)” value (Translocon-associated protein subunit gamma [81], gene SSR3, inhibitor:DMSO)?
A: 0.47 log 2

Q: What about the “light to heavy ratio (L/H ratio) of acetylated peptide SEIINSK(ac)NFDR (SEQ ID NO: 525)” value (Transmembrane protein 43 [159], gene TMEM43, inhibitor:DMSO) of the same compound?
A: −0.45 log 2

Q: What about the “light to heavy ratio (L/H ratio) of acetylated peptide VK(ac)[…] (SEQ ID NO: 562)” value (Tricarboxylate transport protein mitochondrial [149], gene SLC25A1, inhibitor:DMSO) of the same compound?
A: 0.40 log 2

Q: What about the “light to heavy ratio (L/H ratio), log 2 scale, acetylated peptide ESK(ac)[…] (SEQ ID NO: 787)” value (Trifunctional enzyme subunit alpha mitochondrial [337], gene HADHA, drug:DMSO) of the same compound?
A: 1.00

Q: And the “light to heavy ratio (L/H ratio), log 2 scale, acetylated peptide FGAPQK(ac)DVK (SEQ ID NO: 788)” value (Trifunctional enzyme subunit alpha mitochondrial [359], gene HADHA, drug:DMSO)?
A: 1.00

Q: What about the “light to heavy ratio (L/H ratio), log 2 scale, acetylated peptide ILQEGVDPK(ac)K (SEQ ID NO: 789)” value (Trifunctional enzyme subunit alpha mitochondrial [569], gene HADHA, drug:DMSO) of the same compound?
A: 1.00

Q: And the “light to heavy ratio (L/H ratio) of acetylated peptide VPGK(ac)DTVTK (SEQ ID NO: 308)” value (Trifunctional enzyme subunit beta mitochondrial [272], HADHB, drug:DMSO)?
A: 1.00 log 2

Q: And the “light to heavy ratio (L/H ratio), log 2 scale, acetylated peptide GK(ac)GK(ac)AGR (SEQ ID NO: 816)” value (Tubulin polymerization-promoting protein [187:189], gene TPPP, drug:DMSO)?
A: 1.00

Q: What about the “L/H ratio of acetylated peptide VVVTK(ac)YCDPDSYHR (SEQ ID NO: 114)” value (U2AF2 [462], log 2 scale, drug vs DMSO) of the same compound?
A: 0.00

Q: And the “light to heavy ratio (L/H ratio), log 2 scale, acetylated peptide QNIILK(ac)NDK (SEQ ID NO: 784)” value (Uncharacterized protein CXorf59 [13], gene CXorf59, drug:DMSO)?
A: 1.00

Q: And the “L/H ratio of acetylated peptide” value (VAILK(ac)ANLR (SEQ ID NO: 488), Transitional endoplasmic reticulum ATPase [658], VCP)?
A: 0.80 log 2

Q: And the “L/H ratio of acetylated peptide FGIAAK(ac)[…] (SEQ ID NO: 115)” value (VDAC1 [224], log 2 scale, drug vs DMSO)?
A: 0.00

Q: And the “L/H ratio of acetylated peptide YK(ac)[…] (SEQ ID NO: 116)” value (VDAC2 [63], log 2 scale, drug vs DMSO)?
A: 0.00
